The text below walks through data of patent US12139492B2 (Endotarget Inc., priority 2021, dated 2024).

Like-named read-outs stand apart in the source and are kept apart here.

One assay deals with Mino cells. As to the kind of experiment: Antiproliferative effect, MTS cell viability assay, Mino cells. The class given is cell-based. The following applies: Mino mantle cell lymphoma cells, read-out: IC50 (anti-proliferation) Mino cells. The method in brief: (§1)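 Steps: seed B-cell lymphoma line; add compound at 0, 0.001, 0.01, 0.1, 1 or 10 μM; incubate 72 h; add MTS and read reduced tetrazolium (formazan) absorbance at 490 nm.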
(In general: Tetrazolium dyes change colour on reduction, which living cells bring about.)

A further assay deals with JeKo-1 cells. As to the kind of experiment: Antiproliferative effect, MTS cell viability assay, JeKo-1 cells. Type of assay: cell-based. The following applies: JeKo-1 mantle cell lymphoma cells, read-out: IC50 (anti-proliferation) JeKO-1 cells. The method in brief:
as §1

The target in a further assay is BTK (Homo sapiens, UniProt Q06187). In words: Degradation of BTK protein in Namalwa cells (Western blot; DC50, Dmax). The following applies: for degradation of BTK protein: Namalwa B lymphocyte cells, various concentrations, 24 hours, Western blot; for DC50: read-out: DC50 (BTK degradation), concentration giving 50% reduction of BTK expression level, cell line not given; for Dmax: read-out: Dmax (BTK degradation). For orientation: Immunoblotting shows a protein as a band on a membrane.
Sequence of BTK (Q06187 whole entry): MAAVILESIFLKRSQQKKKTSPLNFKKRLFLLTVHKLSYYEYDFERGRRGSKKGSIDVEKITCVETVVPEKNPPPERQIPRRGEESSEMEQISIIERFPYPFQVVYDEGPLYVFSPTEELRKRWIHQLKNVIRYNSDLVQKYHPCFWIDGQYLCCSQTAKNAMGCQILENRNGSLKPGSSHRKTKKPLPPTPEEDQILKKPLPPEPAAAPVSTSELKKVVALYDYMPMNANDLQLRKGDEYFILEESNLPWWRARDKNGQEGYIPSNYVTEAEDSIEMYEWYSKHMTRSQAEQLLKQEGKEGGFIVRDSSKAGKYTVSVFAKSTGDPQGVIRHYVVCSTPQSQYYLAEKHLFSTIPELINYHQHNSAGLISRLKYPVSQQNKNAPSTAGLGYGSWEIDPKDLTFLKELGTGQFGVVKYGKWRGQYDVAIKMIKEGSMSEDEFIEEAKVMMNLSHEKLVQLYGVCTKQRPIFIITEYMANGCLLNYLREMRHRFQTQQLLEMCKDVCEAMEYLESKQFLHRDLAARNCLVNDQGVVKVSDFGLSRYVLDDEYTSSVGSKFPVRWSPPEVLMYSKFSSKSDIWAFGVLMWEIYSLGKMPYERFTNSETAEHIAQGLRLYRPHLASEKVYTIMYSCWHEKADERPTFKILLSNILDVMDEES

Method for BTK: Namalwa, JeKo-1, or Mino cells were plated in 24-well plates at a density of 10^5 cells/well. Media containing various drug concentrations were added on the day following plating (day 0) and allowed to incubate for 24 hours for Western blot. Media with the tested compound was changed every other day. […] Media were removed and dishes were washed with 1×DPBS. Lysates were made by adding 150 μL of complete lysis solution and scraping cells into a 1.5 mL microcentrifuge tube. Lysates were placed on a rotisserie at 4° C. for 30 min and then spun at 4° C. at 12000 rcf for 10 min. Supernatants were assayed for protein content, snap-frozen, and stored a −80° C. if not run immediately. Then 50 μg of protein was subjected to Western blot protocol. […] They were then imaged on a LICOR infrared scanner.

One may read the DC50 as the midpoint of the concentration-degradation curve. Usually Dmax stands for the greatest extent of degradation seen. In the case of `Nc1ncnc2c1c(-c1ccc(Oc3ccccc3)cc1)nn2C1CCN(CCOCCOCCN2CC=C(c3ccc4c(c3)CN(C3CCC(=O)NC3=O)C4=O)CC2)CC1` (stereo not shown) [Compound 417, 3-(5-(1-(2-(2-(2-(4-(4-amino-3-(4-phenoxyphenyl)-1H-pyrazolo[3,4-d]pyrimidin-1-yl)piperidin-1-yl)ethoxy)ethoxy)ethyl)-1,2,3,6-tetrahydropyridin-4-yl)-1-oxoisoindolin-2-yl)piperidine-2,6-dione], the IC50 in the assay with Mino cells (Homo sapiens, MINO) was in the range of 1000 to 10000 nM. The IC50 with JeKo-1 cells (Homo sapiens) was in the range of 1000 to 10000 nM. For the same compound, at BTK, the “degradation of BTK protein” value is listed as “dose-dependent degradation”, the DC50 was 10 to 50 nM and the Dmax is greater than 75%.
`Nc1ncnc2c1c(-c1ccc(Oc3ccccc3)cc1)nn2C1CCN(CCOCCOCCN2CCC(c3ccc4c(c3)C(=O)N(C3CCC(=O)NC3=O)C4=O)CC2)CC1` (stereo not shown) [Compound 418, 5-(1-(2-(2-(2-(4-(4-amino-3-(4-phenoxyphenyl)-1H-pyrazolo[3,4-d]pyrimidin-1-yl)piperidin-1-yl)ethoxy)ethoxy)ethyl)piperidin-4-yl)-2-(2,6-dioxopiperidin-3-yl)isoindoline-1,3-dione]: the IC50 with Mino cells fell in the range of 1000 to 10000 nM. For the same compound, the IC50 in the assay with JeKo-1 cells lay within 1000 to 10000 nM. On BTK, the “degradation of BTK protein” value is listed as “dose-dependent degradation”, the DC50 is less than 10 nM and the Dmax is greater than 90%.
In the case of `Nc1ncnc2c1c(-c1ccc(Oc3ccccc3)cc1)nn2C1CCN(CC2CCN(/C=C\C(=O)CN3CCN(c4ccc5c(c4)CN(C4CCC(=O)NC4=O)C5=O)CC3)CC2)CC1` (stereo not shown) [Compound 421, (Z)-3-(5-(4-(4-(4-((4-(4-amino-3-(4-phenoxyphenyl)-1H-pyrazolo[3,4-d]pyrimidin-1-yl)piperidin-1-yl)methyl)piperidin-1-yl)-2-oxobut-3-en-1-yl)piperazin-1-yl)-1-oxoisoindolin-2-yl)piperidine-2,6-dione], the IC50 in the assay on Mino cells (Homo sapiens, MINO) lay within 1000 to 10000 nM. Further, the IC50 in the assay on JeKo-1 cells (Homo sapiens) is 1000 to 10000 nM. At BTK, the “degradation of BTK protein” value was “dose-dependent degradation”, the DC50 was less than 10 nM and the Dmax was greater than 90%.
On to `Nc1ncnc2c1c(-c1ccc(Oc3ccccc3)cc1)nn2C1CCN(CC2CCN(CCCC(=O)N3CCC(c4ccc5c(c4)CN(C4CCC(=O)NC4=O)C5=O)CC3)CC2)CC1` (stereo not shown) [Compound 422, 3-(5-(1-(4-(4-((4-(4-amino-3-(4-phenoxyphenyl)-1H-pyrazolo(3,4-d)pyrimidin-1-yl)piperidin-1-yl)methyl)piperidin-1-yl)butanoyl)piperidin-4-yl)-1-oxoisoindolin-2-yl)piperidine-2,6-dione], for which the IC50 in the assay with Mino cells (Homo sapiens, MINO) was less than 1000 nM. Further, in the assay on JeKo-1 cells (Homo sapiens), the IC50 was less than 1000 nM. For the same compound, on BTK, the DC50 is less than 10 nM and the Dmax is greater than 90%.
Turning to `Nc1ncnc2c1c(-c1ccc(Oc3ccccc3)cc1)nn2C1CCN(CC2CCN(CC3CN(c4ccc5c(c4)C(=O)N(C4CCC(=O)NC4=O)C5=O)C3)C2)CC1` (stereo not shown) [Compound 423, 5-(3-((3-((4-(4-amino-3-(4-phenoxyphenyl)-1H-pyrazolo(3,4-d)pyrimidin-1-yl)piperidin-1-yl)methyl)pyrrolidin-1-yl)methyl)azetidin-1-yl)-2-(2,6-dioxopiperidin-3-yl)isoindoline-1,3-dione], the IC50 in the assay on Mino cells (Homo sapiens, MINO) is less than 1000 nM. Besides, the IC50 in the assay on JeKo-1 cells (Homo sapiens) was 1000 to 10000 nM. Moreover, at BTK, the “degradation of BTK protein” value is on record as “dose-dependent degradation”, the DC50 was 10 to 50 nM and the Dmax was greater than 90%.
For the compound `Nc1ncnc2c1c(-c1ccc(Oc3ccccc3)cc1)nn2C1CCN(C[C@H]2CCN(CC3CN(c4ccc5c(c4)C(=O)N(C4CCC(=O)NC4=O)C5=O)C3)C2)CC1` (stereo partly drawn) [Compound 423a, 5-(3-(((R)-3-((4-(4-amino-3-(4-phenoxyphenyl)-1H-pyrazolo[3,4-d]pyrimidin-1-yl)piperidin-1-yl)methyl)pyrrolidin-1-yl)methyl)azetidin-1-yl)-2-(2,6-dioxopiperidin-3-yl)isoindoline-1,3-dione], the IC50 is less than 1000 nM in the assay on Mino cells (Homo sapiens, MINO) and 1000 to 10000 nM in the assay with JeKo-1 cells (Homo sapiens). The DC50 on BTK fell in the range of 10 to 50 nM. Further, on BTK, the Dmax is greater than 90%.
